Earlier results as cited in US20030104981A1 (priority 1995, published 2003).

Legend:
[1] = biological target: IDE (Homo sapiens, UniProt P14735); details: cited from earlier work
[2] = system: LB and IM-9; details: cited from earlier work
[3] = system: LB lymphoma cell; details: cited from earlier work
[4] = assumed; cited from earlier work
[5] = poster presentation, 1992; cited from earlier work

Substance: rat insulin analogue at B16 Tyr→Asp replacement: engineered rat insulin analogue at B16 Tyr→Asp replacement (group in Geneva)
- susceptibility to cleavage by IDE [1]: unchanged susceptibility to cleavage by IDE

Substance: A8 His B10 Glu B27 His (code name H2) insulin [Radoyka H2]
- binding to LB and IM-9 [2]: bound essentially irreversibly
- mitogenic potency (literature) [3]: most potent mitogen

Substance: des-(B26-B30)-[Glu-B^10; Tyr-B^25—NH2] insulin analogue
- activity, times more active than native insulin [4]: at least 20 times

Substance: B10 Asp insulin: B10 His replaced by Asp in native insulin
- mitogenic effect [5]: significantly increased mitogenic effect
